Measured values reported in patent publication US6355655B1, “Heterocyclic sulphonamide derivatives” (Eli Lilly and Company, priority 1998, dated 2002).

Molecular target: T1, human GluR4B receptor (Homo sapiens, UniProt P48058)
T1 construct: expressed in transfected cells
Test: Potentiation of agonist-induced excitability of human GluR4B receptor expressed in HEK 293 cells
Format: cell-based
Description: The ability of compounds of formula I to potentiate glutamate receptor-mediated response may be determined using fluorescent calcium indicator dyes (Molecular Probes, Eugene, Oreg., Fluo-3) and by measuring glutamate-evoked efflux of calcium into GluR4 transfected HEK293 cells, as described in more detail below.
In one test, 96 well plates containing confluent monolayers of HEK cells stably expressing human GluR4B (obtained as described in European Patent Application Publication Number EP-A1-583917) are prepared. The tissue culture medium in the wells is then discarded, and the wells are each washed once with 200 μl of buffer (glucose, 10 mM, sodium chloride, 138 mM, magnesium chloride, 1 mM, potassium chloride, 5 mM, calcium chloride, 5 mM, N-[2-hydroxyethyl]-piperazine-N-[2-ethanesulfonic acid], 10 mM, to pH 7.1 to 7.3). […]
Each test is then performed as follows. […] A second fluorescent reading is taken after 5 minutes incubation. 15 μl of 400 μM glutamate solution is then added to each well (final glutamate concentration 100 μM), and a third reading is taken. The activities of test compounds and cyclothiazide solutions are determined by subtracting the second from the third reading (fluorescence due to addition of glutamate in the presence or absence of test compound or cyclothiazide) and are expressed relative to enhance fluorescence produced by 100 μM cyclothiazide.

T1 sequence (P48058 21-902): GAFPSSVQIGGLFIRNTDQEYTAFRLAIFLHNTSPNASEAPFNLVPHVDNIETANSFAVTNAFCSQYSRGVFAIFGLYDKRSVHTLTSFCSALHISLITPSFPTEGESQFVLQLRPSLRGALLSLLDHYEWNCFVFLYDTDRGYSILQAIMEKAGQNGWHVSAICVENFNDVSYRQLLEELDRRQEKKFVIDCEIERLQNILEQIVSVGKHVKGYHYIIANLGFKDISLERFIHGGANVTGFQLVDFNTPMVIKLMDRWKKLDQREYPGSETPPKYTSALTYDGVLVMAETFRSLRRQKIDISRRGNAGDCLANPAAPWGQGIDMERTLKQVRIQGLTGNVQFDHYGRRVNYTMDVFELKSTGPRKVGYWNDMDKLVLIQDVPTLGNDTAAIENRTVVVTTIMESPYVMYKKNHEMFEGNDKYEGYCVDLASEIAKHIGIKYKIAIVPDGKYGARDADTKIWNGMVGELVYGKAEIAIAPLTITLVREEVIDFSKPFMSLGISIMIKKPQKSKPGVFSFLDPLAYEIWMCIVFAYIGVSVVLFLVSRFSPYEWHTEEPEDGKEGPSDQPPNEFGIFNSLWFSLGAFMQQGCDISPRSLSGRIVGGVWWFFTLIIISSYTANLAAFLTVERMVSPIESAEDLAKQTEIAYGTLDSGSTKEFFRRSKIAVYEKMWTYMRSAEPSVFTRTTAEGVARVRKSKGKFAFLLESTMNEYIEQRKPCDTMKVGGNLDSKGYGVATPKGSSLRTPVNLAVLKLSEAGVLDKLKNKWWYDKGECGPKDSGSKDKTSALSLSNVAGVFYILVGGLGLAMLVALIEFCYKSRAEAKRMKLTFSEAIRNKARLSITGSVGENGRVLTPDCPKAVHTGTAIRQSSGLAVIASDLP

Compound: NS(=O)(=O)c1cc2c(cc1Cl)NC(C1CC3C=CC1C3)NS2(=O)=O (stereo not shown) [cyclothiazide]
- potentiation of agonist-induced excitability: potentiate agonist-induced excitability
